Test results: patent publication US20040010001A1, “Methods and compositions for modulating cell proliferation and cell death” (priority 1999, published 2004)
Like-named read-outs stand apart in the source and are kept apart here.

Columns and labels:
[1] = system: Human prostate PC3 tumor cells; assay: aFGF/bFGF-induced resistance and reversal by suramin, sulforhodamine B assay; assay type: cell-based
Protocol: The experimental conditions are described briefly below. […] Cell number was measured using the sulforhodamine B assay which measures the total protein concentration. […] The FGF-induced resistance was dependent on the FGF concentrations, with a higher resistance at higher FGF concentrations.

[2] = system: Human prostate PC3 tumor cells; assay: Drug treatment and extracellular bFGF (ELISA), LDH release, cell number; assay type: cell-based; conditions: for Extracellular LDH, % of control / Extracellular bFGF, % of control / Extracellular concentration bFGF / bFGF:LDH ratio: 72 hours
Protocol: The experimental conditions are described briefly below. […] The remaining cell number at the end of treatment was counted using a Coulter counter. The extracellular bFGF concentration was measured using ELISA. The release of lactate dehydrogenase (LDH) into the extracellular culture medium is indicative of cell death and gives a measure of the release of cellular content into the culture medium. If the increase in extracellular bFGF level is due to the release of bFGF upon cell death and lysis, the increase in bFGF will be accompanied by an increase in LDH in the same extent. This would result in an higher bFGF level and a constant bFGF-to-LDH ratio. On the other hand, an increase in extracellular bFGF due to an increase in bFGF production and release of bFGF from cells by processes other than cell lysis will result in an higher bFGF level and an higher bFGF-to-LDH ratio.

[3] = no suramin, relative to control
[4] = read-out: IC50, Control (without FGF treatment), Suramin, 15 μM, drug 96 hours with 15 μM suramin
[5] = read-out: IC50, aFGF 0.3 ng/ml + bFGF 1 ng/ml, With suramin, FGF pretreatment 96 hours, drug 96 hours with 15 micromolar suramin
[6] = read-out: IC50, aFGF 1 ng/ml + bFGF 3 ng/ml, With suramin, FGF pretreatment 96 hours, drug 96 hours with 15 micromolar suramin
[7] = Homo sapiens, read-out: IC50, Control (drug treatment only, without FGF treatment), No suramin, drug 96 hours
[8] = Homo sapiens, read-out: IC50, aFGF 0.3 ng/ml + bFGF 1 ng/ml, No suramin, FGF pretreatment 96 hours, drug 96 hours
[9] = Homo sapiens, read-out: IC50, aFGF 1 ng/ml + bFGF 3 ng/ml, No suramin, FGF pretreatment 96 hours, drug 96 hours

CCC1=C[C@@H]2CN(C1)Cc1c([nH]c3ccccc13)[C@@](C(=O)OC)(c1cc3c(cc1OC)N(C)[C@H]1[C@@](O)(C(=O)OC)[C@H](OC(C)=O)[C@]4(CC)C=CCN5CC[C@]31[C@@H]54)C2 [Vinorelbin]
Resistance, Folds, aFGF 0.3 ng/ml + bFGF 1 ng/ml [1, 3]: 1.32 Folds | Resistance, Folds, aFGF 1 ng/ml + bFGF 3 ng/ml [1, 3]: 2.26 Folds | IC50 ([1]; read-out: IC50, Control (drug treatment only, without FGF treatment), No suramin, drug 96 hours): 3.99 nM | IC50 [1, 4]: 3.29 nM | IC50 ([1]; read-out: IC50, aFGF 0.3 ng/ml + bFGF 1 ng/ml, No suramin, FGF pretreatment 96 hours, drug 96 hours): 5.25 nM | IC50 [1, 5]: 3.6 nM | IC50 ([1]; read-out: IC50, aFGF 1 ng/ml + bFGF 3 ng/ml, No suramin, FGF pretreatment 96 hours, drug 96 hours): 9.01 nM | IC50 [1, 6]: 3.84 nM

CC[C@@]1(O)C(=O)OCc2c1cc1n(c2=O)Cc2cc3ccccc3nc2-1 [Camptothecin]
IC50 [1, 7]: 5.03 nM | IC50 [1, 8]: 11.4 nM | IC50 [1, 9]: 17.2 nM | Resistance, Folds, aFGF 0.3 ng/ml + bFGF 1 ng/ml [1, 3]: 2.26 Folds | Resistance, Folds, aFGF 1 ng/ml + bFGF 3 ng/ml [1, 3]: 3.42 Folds | IC50 [1, 4]: 4.8 nM | IC50 [1, 5]: 5.4 nM | IC50 [1, 6]: 5.78 nM | Remaining cell number at 72 hours (% of control) ([2]; drug concentration 2 NM): 83% | Remaining cell number at 72 hours × 10^6 ([2]; drug concentration 2 NM): 2.0 × 10^6 | Extracellular LDH, % of control ([2]; drug concentration 2 NM): 137 % of control | Extracellular bFGF, % of control ([2]; drug concentration 2 NM): 145 % of control | Extracellular concentration bFGF ([2]; drug concentration 2 NM): 9.08 pg/mL | bFGF:LDH ratio ([2]; drug concentration 2 NM): 1.06 | Remaining cell number at 72 hours (% of control) ([2]; drug concentration 6 NM): 50% | Remaining cell number at 72 hours × 10^6 ([2]; drug concentration 6 NM): 1.2 × 10^6 | Extracellular LDH, % of control ([2]; drug concentration 6 NM): 182 % of control | Extracellular bFGF, % of control ([2]; drug concentration 6 NM): 221 % of control | Extracellular concentration bFGF ([2]; drug concentration 6 NM): 13.9 pg/mL | bFGF:LDH ratio ([2]; drug concentration 6 NM): 1.22 | Remaining cell number at 72 hours (% of control) ([2]; drug concentration 20 NM): 21% | Remaining cell number at 72 hours × 10^6 ([2]; drug concentration 20 NM): 0.5 × 10^6 | Extracellular LDH, % of control ([2]; drug concentration 20 NM): 219 % of control | Extracellular bFGF, % of control ([2]; drug concentration 20 NM): 279 % of control | Extracellular concentration bFGF ([2]; drug concentration 20 NM): 17.5 pg/mL | bFGF:LDH ratio ([2]; drug concentration 20 NM): 1.28

COc1cccc2c1C(=O)c1c(O)c3c(c(O)c1C2=O)C[C@@](O)(C(C)=O)C[C@@H]3O[C@H]1C[C@H](N)[C@H](O)[C@H](C)O1 [Daunorubicin]
IC50 [1, 7]: 29.4 nM | IC50 [1, 8]: 97.4 nM | IC50 [1, 9]: 157 nM | Resistance, Folds, aFGF 0.3 ng/ml + bFGF 1 ng/ml [1, 3]: 3.31 Folds | Resistance, Folds, aFGF 1 ng/ml + bFGF 3 ng/ml [1, 3]: 5.33 Folds | IC50 [1, 4]: 29.1 nM | IC50 [1, 5]: 26.5 nM | IC50 [1, 6]: 30.2 nM

N[C@@H](Cc1ccc(N(CCCl)CCCl)cc1)C(=O)O [Melphalan]
IC50 [1, 7]: 4190 nM | IC50 [1, 8]: 12800 nM | IC50 [1, 9]: 24600 nM | Resistance, Folds, aFGF 0.3 ng/ml + bFGF 1 ng/ml [1, 3]: 3.07 Folds | Resistance, Folds, aFGF 1 ng/ml + bFGF 3 ng/ml [1, 3]: 5.87 Folds | IC50 [1, 4]: 4020 nM | IC50 [1, 5]: 4480 nM | IC50 [1, 6]: 3970 nM

Oc1ncc(N(CCCl)CCCl)c(O)n1 [Uracil Mustard]
Resistance, Folds, aFGF 0.3 ng/ml + bFGF 1 ng/ml [1]: 1.41 Folds | Resistance, Folds, aFGF 1 ng/ml + bFGF 3 ng/ml [1]: 2.24 Folds | IC50 ([1]; Homo sapiens, 96 h, read-out: IC50, Control (drug treatment only, without FGF treatment), No suramin): 30000 nM | IC50 ([1]; Homo sapiens, 96 h, read-out: IC50, aFGF 0.3 ng/ml + bFGF 1 ng/ml, No suramin): 42400 nM | IC50 ([1]; Homo sapiens, 96 h, read-out: IC50, aFGF 1 ng/ml + bFGF 3 ng/ml, No suramin): 67100 nM | IC50 ([1]; read-out: IC50, Control (without FGF treatment), Suramin, 15 μM): 38200 nM | IC50 ([1]; read-out: IC50, aFGF 0.3 ng/ml + bFGF 1 ng/ml, With suramin): 37600 nM | IC50 ([1]; read-out: IC50, aFGF 1 ng/ml + bFGF 3 ng/ml, With suramin): 34600 nM

CC[C@@]1(O)C(=O)OCc2c1cc1n(c2=O)Cc2cc3c(CN(C)C)c(O)ccc3nc2-1 [Topotecan]
IC50 [1, 7]: 22.2 nM | IC50 [1, 8]: 31.1 nM | IC50 [1, 9]: 53.9 nM | Resistance, Folds, aFGF 0.3 ng/ml + bFGF 1 ng/ml [1, 3]: 1.40 Folds | Resistance, Folds, aFGF 1 ng/ml + bFGF 3 ng/ml [1, 3]: 2.43 Folds | IC50 [1, 4]: 21.7 nM | IC50 [1, 5]: 20.8 nM | IC50 [1, 6]: 21 nM
